Experimental data: US20060276520A1 (priority 2002, published 2006)
Values joined by “and” are separate entries in the source; they are usually repeats but may differ in a detail not shown here. Equal entries are not always repeated. Where two headings read alike, the source gives them in different places.

Columns and labels:
Assay in all cases: biochemical
[1] = target: T1, APC2/APC11 (Homo sapiens, UniProt Q9NYG5+Q9UJX6)
[2] = target: T1, APC2/APC11; remark: listed apart in the source
[3] = target: ROC1/CUL2 (Homo sapiens, UniProt P62877+Q13617)
ROC1/CUL2, sequence (P62877 whole entry): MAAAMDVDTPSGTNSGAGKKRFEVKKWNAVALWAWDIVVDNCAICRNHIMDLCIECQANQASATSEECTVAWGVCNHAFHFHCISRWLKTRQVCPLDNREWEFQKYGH
ROC1/CUL2, sequence (Q13617 whole entry): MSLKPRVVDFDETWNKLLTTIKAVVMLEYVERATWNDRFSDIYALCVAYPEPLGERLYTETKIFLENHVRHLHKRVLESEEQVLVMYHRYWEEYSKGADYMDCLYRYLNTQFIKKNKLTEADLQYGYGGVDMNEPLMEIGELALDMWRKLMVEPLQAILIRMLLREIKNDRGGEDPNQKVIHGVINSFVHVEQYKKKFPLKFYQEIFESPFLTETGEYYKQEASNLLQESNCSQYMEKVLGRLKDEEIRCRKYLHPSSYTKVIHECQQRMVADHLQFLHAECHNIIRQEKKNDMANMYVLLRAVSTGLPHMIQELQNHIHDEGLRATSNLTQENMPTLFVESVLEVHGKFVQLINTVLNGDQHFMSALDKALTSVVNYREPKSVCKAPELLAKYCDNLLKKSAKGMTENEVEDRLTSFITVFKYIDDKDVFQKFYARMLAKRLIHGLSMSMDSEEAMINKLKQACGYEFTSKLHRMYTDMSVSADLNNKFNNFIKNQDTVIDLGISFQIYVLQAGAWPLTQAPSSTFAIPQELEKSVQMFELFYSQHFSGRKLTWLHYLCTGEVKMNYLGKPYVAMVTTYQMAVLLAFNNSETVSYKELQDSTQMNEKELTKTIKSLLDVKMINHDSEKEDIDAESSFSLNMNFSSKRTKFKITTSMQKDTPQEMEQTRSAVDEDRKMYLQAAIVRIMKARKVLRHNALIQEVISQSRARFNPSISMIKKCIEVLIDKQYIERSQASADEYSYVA

[4] = target: T2, ROC2/CUL5 (Homo sapiens, UniProt Q93034+Q9UBF6)
T2 sequence (Q9UBF6 1-113): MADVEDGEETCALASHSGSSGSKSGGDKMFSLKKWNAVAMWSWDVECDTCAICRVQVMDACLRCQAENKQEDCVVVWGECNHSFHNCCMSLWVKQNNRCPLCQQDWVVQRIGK
T2 sequence (Q93034 1-780): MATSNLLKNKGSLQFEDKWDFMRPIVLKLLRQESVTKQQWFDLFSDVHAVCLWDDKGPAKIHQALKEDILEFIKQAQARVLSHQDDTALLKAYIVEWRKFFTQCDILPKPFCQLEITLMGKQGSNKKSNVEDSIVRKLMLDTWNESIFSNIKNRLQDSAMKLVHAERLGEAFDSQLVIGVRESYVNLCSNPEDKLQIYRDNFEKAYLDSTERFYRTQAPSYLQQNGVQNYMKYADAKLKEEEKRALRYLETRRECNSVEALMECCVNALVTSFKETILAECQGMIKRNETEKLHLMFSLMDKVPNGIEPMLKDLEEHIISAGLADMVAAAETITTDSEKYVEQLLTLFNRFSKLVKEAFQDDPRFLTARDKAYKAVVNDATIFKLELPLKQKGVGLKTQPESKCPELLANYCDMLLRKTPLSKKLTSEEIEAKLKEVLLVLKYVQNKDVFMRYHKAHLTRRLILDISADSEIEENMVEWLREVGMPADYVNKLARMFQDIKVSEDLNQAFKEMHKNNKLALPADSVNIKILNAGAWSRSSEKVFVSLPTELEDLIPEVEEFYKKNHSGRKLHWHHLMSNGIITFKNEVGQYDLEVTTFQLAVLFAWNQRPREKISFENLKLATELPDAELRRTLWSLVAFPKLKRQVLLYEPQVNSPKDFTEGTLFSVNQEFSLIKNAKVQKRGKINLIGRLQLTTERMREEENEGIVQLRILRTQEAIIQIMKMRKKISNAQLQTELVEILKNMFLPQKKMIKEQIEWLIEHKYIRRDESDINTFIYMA

[5] = target: ROC1/CUL1 (Homo sapiens, UniProt P62877+Q13616)
ROC1/CUL1, sequence (P62877 whole entry): as the sequence (P62877 whole entry) above
ROC1/CUL1, sequence (Q13616 whole entry): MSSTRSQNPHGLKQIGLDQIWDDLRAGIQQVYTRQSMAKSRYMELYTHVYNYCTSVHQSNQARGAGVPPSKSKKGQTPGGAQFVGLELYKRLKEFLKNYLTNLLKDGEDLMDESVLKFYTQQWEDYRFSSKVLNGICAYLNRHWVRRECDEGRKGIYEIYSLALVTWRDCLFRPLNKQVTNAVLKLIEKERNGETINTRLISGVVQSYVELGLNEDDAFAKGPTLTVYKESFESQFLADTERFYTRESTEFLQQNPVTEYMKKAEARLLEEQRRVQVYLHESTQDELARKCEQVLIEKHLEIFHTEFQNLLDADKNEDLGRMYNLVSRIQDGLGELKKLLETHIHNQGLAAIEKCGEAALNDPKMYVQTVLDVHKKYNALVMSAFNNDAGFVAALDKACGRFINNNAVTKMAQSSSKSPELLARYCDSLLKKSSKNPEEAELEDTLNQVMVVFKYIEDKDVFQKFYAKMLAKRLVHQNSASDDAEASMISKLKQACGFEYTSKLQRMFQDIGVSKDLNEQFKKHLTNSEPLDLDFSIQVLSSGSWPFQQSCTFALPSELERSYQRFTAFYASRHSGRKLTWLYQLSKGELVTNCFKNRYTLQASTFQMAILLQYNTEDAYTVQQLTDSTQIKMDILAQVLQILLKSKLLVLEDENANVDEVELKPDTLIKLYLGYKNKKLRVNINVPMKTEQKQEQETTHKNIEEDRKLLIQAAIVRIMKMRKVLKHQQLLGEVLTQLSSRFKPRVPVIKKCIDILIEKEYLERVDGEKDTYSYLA

[6] = target: MDM2/P53 (Homo sapiens, UniProt Q00987)
MDM2/P53, sequence (Q00987 whole entry): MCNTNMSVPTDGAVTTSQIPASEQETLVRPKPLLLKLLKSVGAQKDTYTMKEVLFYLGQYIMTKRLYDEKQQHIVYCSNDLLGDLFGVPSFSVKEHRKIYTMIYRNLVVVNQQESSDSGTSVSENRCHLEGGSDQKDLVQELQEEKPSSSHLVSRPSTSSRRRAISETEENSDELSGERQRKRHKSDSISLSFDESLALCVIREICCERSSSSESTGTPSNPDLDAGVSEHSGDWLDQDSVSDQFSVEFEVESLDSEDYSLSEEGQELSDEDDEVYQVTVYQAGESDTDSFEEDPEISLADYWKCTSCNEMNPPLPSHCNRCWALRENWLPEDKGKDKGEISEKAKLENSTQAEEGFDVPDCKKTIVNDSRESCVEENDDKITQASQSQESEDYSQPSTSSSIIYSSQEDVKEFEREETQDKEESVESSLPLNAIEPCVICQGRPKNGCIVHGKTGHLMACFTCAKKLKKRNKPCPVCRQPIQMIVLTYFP

T1 sequence (Q9UJX6 whole entry): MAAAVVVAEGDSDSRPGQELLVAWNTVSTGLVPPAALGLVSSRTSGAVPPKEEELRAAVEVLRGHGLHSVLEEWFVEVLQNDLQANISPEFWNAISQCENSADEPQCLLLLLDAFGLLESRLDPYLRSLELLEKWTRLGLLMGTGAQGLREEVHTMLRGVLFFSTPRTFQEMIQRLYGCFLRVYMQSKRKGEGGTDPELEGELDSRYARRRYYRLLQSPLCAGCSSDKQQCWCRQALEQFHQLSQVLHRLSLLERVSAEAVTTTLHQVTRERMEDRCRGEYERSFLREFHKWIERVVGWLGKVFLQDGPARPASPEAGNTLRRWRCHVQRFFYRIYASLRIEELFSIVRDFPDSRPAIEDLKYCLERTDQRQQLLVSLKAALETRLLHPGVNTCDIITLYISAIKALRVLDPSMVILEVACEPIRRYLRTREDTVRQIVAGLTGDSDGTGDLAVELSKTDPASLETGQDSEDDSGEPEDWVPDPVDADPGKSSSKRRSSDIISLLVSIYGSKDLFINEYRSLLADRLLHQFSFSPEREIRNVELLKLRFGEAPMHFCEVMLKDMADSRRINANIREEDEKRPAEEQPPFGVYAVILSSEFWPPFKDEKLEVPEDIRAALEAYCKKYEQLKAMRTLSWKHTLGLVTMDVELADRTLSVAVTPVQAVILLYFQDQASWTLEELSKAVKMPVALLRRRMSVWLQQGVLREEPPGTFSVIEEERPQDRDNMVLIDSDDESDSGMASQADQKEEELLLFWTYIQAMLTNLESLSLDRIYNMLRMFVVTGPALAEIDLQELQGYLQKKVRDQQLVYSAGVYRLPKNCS
T1 sequence (Q9NYG5 whole entry): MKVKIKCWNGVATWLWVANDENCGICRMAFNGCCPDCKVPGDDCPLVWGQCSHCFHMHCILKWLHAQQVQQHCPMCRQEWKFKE

Structure (SMILES) | IC50 [1] [µM] | IC50 [2] | IC50 [3] [µM] | IC50 [4] [µM] | IC50 [5] [µM] | IC50 [6] [µM]
COc1ccc(-c2ccc(/C=C3/SC(=S)NC3=O)o2)cc1Cl [Compound 172, (5E)-5-{[5-(3-chloro-4-methoxyphenyl)-2-furyl]methylene}-2-thioxo-1,3-thiazolidin-4-one] | 2 | 2 µM |  |  |  | 
C=CCN1C(=O)C(Cc2ccc(-c3ccccc3Cl)o2)SC1=S (stereo not drawn) [Compound 304, 3-allyl-5-{[5-(2-chlorophenyl)-2-furyl]methyl}-2-thioxo-1,3-thiazolidin-4-one] |  |  | 1 | 0.8 | 1 | 
Cc1c(N2C(=O)/C(=C\c3ccc(-c4ccc(Br)cc4)o3)SC2=S)c(=O)n(-c2ccccc2)n1C [Compound 51, (5E)-5-{[5-(4-bromophenyl)-2-furyl]methylene}-3-(1,5-dimethyl-3-oxo-2-phenyl-2,3-dihydro-1H-pyrazol-4-yl)-2-thioxo-1,3-thiazolidin-4-one] | 12.1 |  |  |  |  | 9.24
O=C1/C(=C\c2ccc(-c3cccc(C(F)(F)F)c3)o2)SC(=S)N1Cc1ccco1 [Compound 55, (5E)-3-(2-furylmethyl)-2-thioxo-5-({5-[3-(trifluoromethyl)phenyl]-2-furyl}methylene)-1,3-thiazolidin-4-one] |  | 4 µM and 10 µM |  |  |  | 
C=CCN1C(=O)/C(=C/c2ccc(-c3cccc(Cl)c3)o2)SC1=S [Compound 284, (5Z)-3-allyl-5-{[5-(3-chlorophenyl)-2-furyl]methylene}-2-thioxo-1,3-thiazolidin-4-one] |  |  | 0.8 | 0.2 | 0.8 | 
CN1C(=O)/C(=C\c2ccc(-c3ccc(Cl)cc3)o2)SC1=S [Compound 29, (5E)-5-{[5-(4-chlorophenyl)-2-furyl]methylene}-3-methyl-2-thioxo-1,3-thiazolidin-4-one] | 1.44 |  |  |  |  | 1.21
O=C1/C(=C/c2ccc(-c3ccccc3Cl)o2)SC(=S)N1Cc1ccco1 [Compound 280, (5Z)-5-{[5-(2-chlorophenyl)-2-furyl]methylene}-3-(2-furylmethyl)-2-thioxo-1,3-thiazolidin-4-one] | 0.56 |  |  |  |  | 0.25
